From patent publication US9914910B2, “Methods of preserving and protecting pancreatic beta cells and treating or preventing diabetes by inhibiting NOX-1” (Eastern Virginia Medical School, priority 2013, dated 2018)

Columns and labels:
βTC-3 cells [1] = experiment: ROS measurement (DCF-DA) after PIC; format: cell-based, mouse; details: βTC-3, PIC 1 hour
Protocol: βTC-3 cells were cultured in DMEM media (Life Technologies, Grand Island, N.Y.) supplemented with 18% fetal calf serum, 1% penicillin/streptomycin, 4 mM L-glutamine, 5.5 mM glucose, and 1 mM sodium pyruvate at 370 C with 5% CO2.
Cells treated for 1 hour were then washed with PBS prior to addition of 10 μM 6-Carboxy-2′,7′-Dichlorodihydrofluorescein Diacetate, Di(Acetoxymethyl ester) (DCF-DA, Life Technologies) for 30 min at 370 C. Post PBS wash cells were incubated at 370 C for 1 hour. Prior to fluorescence measurement (SpectraMax Molecular Devices, Sunnyvale, Calif.) at excitation 480 nm: emission 530 nm.
Elevation of cellular ROS in beta-cell lines INS-1 (rat beta-cell line) and βTC-3 (mouse beta-cell line) was evaluated by conversion of fluorescent substrate DCF-DA. Following one hour stimulation with a pro-inflammatory cytokine cocktail (PIC; IL-1β, TNF-α, and IFN-γ) detectable ROS elevated from control levels of 0.05±0.02 and 0.09±0.03 (INS-1 and βTC-3 respectively) to 0.25±0.04 and 0.23±0.03 (INS-1 and βTC-3 respectively). This increase was significant p<0.05 and p<0.01 (INS-1 and βTC-3 respectively).

βTC-3 cells [2] = experiment: Caspase-3 assay (pro-caspase-3 cleavage) after PIC; format: cell-based, mouse; details: βTC-3, PIC 4 hours, up to
Protocol: (§1) A. Caspase-3 Assay: Pro-caspase-3 cleavage was measured using a caspase-3 Assay kit (BD Pharmigen, Franklin Lakes, N.J.) per the manufacturer's instructions; fluorescence being measured (SpectraMax, Molecular Devices, Sunnyvale, Calif.) at excitation 380 nm and emission 440 nm (INS-1) or 460 nm (βTC-3, mouse).

primary mouse islets [3] = experiment: Caspase-3 assay (pro-caspase-3 cleavage) after PIC; format: cell-based; details: 4 hours, up to
Protocol: (§2) Human donor islets were obtained from integrated islet distribution project (http://iidp.coh.org) and cultured in CMRL media (Mediatech, Manassas, Va.). Mouse islets were freshly isolated from 8-week old male C57BL/6J mice (Jackson Laboratory, Bar Harbor, Me.) by common bile duct cannulation and collagenase digestion. Islets were hand picked prior to use.
as §1

INS-1 cells = experiment: Apoptosis by YO-PRO-1 fluorescence microscopy after PIC; format: cell-based, rat; details: INS-1, PIC 24 hours, p<0.001
Protocol: (§3) B. Fluorescence microscopy: Stimulated cells or islets were washed in cold PBS, and incubated for 30 mins at 40 C with cold PBS containing 1 μg/mL propidium iodide and 0.1 μM YO-PRO-1 (Life Technologies). For cell lines, five randomly fields per well were analyzed. For islets, all islets (>1000 um2 in size) were analyzed. Densitometric fluorescent value for YO-PRO-1 (green channel) was normalized to background and expressed proportional to cell occupied area (phase contrast). Images captured across three channels with Axiophot (Zeiss, Jena, Germany) with Axiovision (Zeiss) image analysis.

primary mouse islets [4] = experiment: as above; format: cell-based
Protocol: as §2, §3
FIG. 1: Treatment of primary mouse islets with inflammatory cytokines (TNFα, IL-1β, IFNγ) induces islet/beta cell death (apoptosis) which can be measured in a fluorescent-based assay (green signal) using YO-PRO-1. […] The degree of cell death can be quantified by measuring the green signal. The graph is a quantitative analysis of multiple (≧4 visual fields in replicate wells). The detected relative fluorescent units (RFU) are plotted. […]

[5] = test system: NOX-1 gene expression in primary mouse islets; experiment: PIC-induced NOX-1 gene expression (RT-PCR); format: cell-based
Source text: Human donor islets were obtained from integrated islet distribution project (http://iidp.coh.org) and cultured in CMRL media (Mediatech, Manassas, Va.). Mouse islets were freshly isolated from 8-week old male C57BL/6J mice (Jackson Laboratory, Bar Harbor, Me.) by common bile duct cannulation and collagenase digestion. Islets were hand picked prior to use. […] Total RNA was isolated using the RNeasy Mini Kit (Qiagen, Valencia, Calif.) and cDNA prepared using MMLV reverse transcriptase (Life Technologies) and random hexamers (Life Technologies). Jump Start Taq polymerase (Life Technologies) was used in PCR reactions. Primers used with SYBR Green 1 (Molecular Probes, Carlsbad, Calif.) probes: […] GAPDH forward [NT] ID NO: 3); GAPDH reverse [NT] NO: 4). RT-PCR reactions were performed in triplicate (CFX96 Bio-Rad, Hercules, Calif.). Taqman primers (Life Technologies) were also used.

[6] = test system: NOX-1 gene expression in primary human donor islets; experiment: PIC-induced NOX-1 gene expression (RT-PCR); format: cell-based; details: 1 μM ML171
Protocol: Total RNA was isolated using the RNeasy Mini Kit (Qiagen, Valencia, Calif.) and cDNA prepared using MMLV reverse transcriptase (Life Technologies) and random hexamers (Life Technologies). Jump Start Taq polymerase (Life Technologies) was used in PCR reactions. […] RT-PCR reactions were performed in triplicate (CFX96 Bio-Rad, Hercules, Calif.). Taqman primers (Life Technologies) were also used. Data was normalized to the housekeeping gene GAPDH and analyzed using the 2-ΔΔCT method.

[7] = test system: NOX-1 protein in piglet islets; experiment: PIC-induced NOX-1 protein in piglet islets; format: cell-based; details: 1 μM, 18 hours
Protocol: The methods disclosed herein may also be utilized in the preparation of viable xenotransplantable porcine islets and/or the treatment of a mammalian patient (including humans) suffering from diabetes involving the transplantation into the mammal of viable porcine islets capable of producing insulin within the host. Piglet islets are candidates for xenotransplantation of piglet islets with cytokines (PIC; TNF, IL-1, IFN) induced expression of NOX-1 protein. […] Islets were treated for 18 hours. Data supports feedforward regulation of NOX-1 expression and effective uncoupling of this pathway in piglet islets by inhibition of NOX-1 activity.

βTC-3 cells [8] = experiment: Glucose-stimulated insulin secretion (GSIS) after PIC; format: cell-based, mouse; details: βTC-3, 1 mM vs 16 mM glucose, p<0.01
Protocol: (§4) Treated islets or cells then were washed with PBS and placed in 1 mL serum-free Kreb-Ringer buffer (115 mM NaCl, 24 mM NaHCO3, 5 mM KCl, 1 mM MgCl2, and 25 mM HEPES) for 1 hour at 370 C. Low (1 mM) or high (16 mM) glucose was added for […] for 30 min. Insulin levels in media were measured by ELISA (Mercodia, Winston Salem, N.C.) as per the manufacturer's instructions.

primary mouse islets [9] = experiment: as above; format: cell-based; details: 10 μM ML171, 1 mM vs 16 mM glucose
Protocol: as §2, §4

CC(=O)c1ccc2c(c1)Nc1ccccc1S2 [ML171, 2-acetylphenothiazine]
inhibition of PIC-induced ROS (DCFDA conversion) (βTC-3 cells [1]): dose dependent inhibition | block of PIC-induced activation of caspase-3 (βTC-3 cells [2]): ≤ 97%±3.1% | block of PIC-induced activation of caspase-3 (primary mouse islets [3]; 1 μM): up to 100%±7% | block of PIC-induced activation of caspase-3 (primary mouse islets [3]; 10 μM): ≤ 100%±3% | PIC-induced apoptosis (YO-PRO-1) (INS-1 cells): apoptosis was significantly decreased | cytokine induced cell death (YO-PRO-1 RFU) (primary mouse islets [4]; 1 μM, p<0.05): protected islets from cytokine induced cell death | reduction of PIC induced islet apoptosis (primary mouse islets [4]; 10 μM, 24 hours): 86%±4% | inhibition of PIC-induced expression of NOX-1 ([5]; 1 μM, 24 hours): 84% | induction of gene NOX-1 by PIC ([5]; NCTT-1 100 nM, ML171 1 μM): attenuated | inhibition of PIC-induced expression of NOX-1 [6]: 50% | PIC-induced NOX-1 protein [7]: reduces PIC-induced NOX-1 protein | glucose-stimulated insulin secretion with PIC (βTC-3 cells [8]): restoring the glucose-sensitive insulin response | glucose stimulated insulin response with PIC (primary mouse islets [9]): partially restored
